In brackets after ≈: the same amount, converted by molar mass. Where a SMILES comes first, the peptide text is derived from it. Bridges are numbered along the chain shown (N, C = ends). Roman numbers before positions name the chains, in order. [ ]: non-standard residue; d: D form. NMeDab = CN[C@@H](CCN)C(=O)O; dDab = NCC[C@@H](N)C(=O)O; Dab = NCC[C@H](N)C(=O)O; Abu = CC[C@H](N)C(=O)O; Dap = NC[C@H](N)C(=O)O
Tests used:
male ICR mice = assay: Tolerability in a mouse model (Maximum Tolerated Dose assay); assay type: in vivo; details: 2 × 40 mg/kg s.c. at a 12-hr interval, groups of 3
Procedure, shortened: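 Groups of 3 male ICR mice weighing 23±3 g received two subcutaneous doses, 12 h apart, of 30 or 40 mg/kg in saline adjusted to pH 6.5-7.6. Observation for 30 min after each dose covered autonomic effects and acute toxicity, including death.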

[1] = tested on: human red blood cells (hRBC); assay: Hemolysis; assay type: cell-based; details: red cells of human, 1 h, 200
Procedure, shortened: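 Hemoglobin release from PBS-washed hRBC at 20% (v/v), incubated 1 h at 37° C with peptides at 200 μg/mL, is measured at 540 nm. Values are blank corrected and given as a fraction of Triton X-100 lysis × 100%.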

[2] = tested on: Enterobacter cloacae 848840; assay type: cell-based; details: 848840
Procedure, shortened: (§1)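 MIC in μg/mL, read as absence of visible growth after 18-20 h incubation at 35° C, by standard CLSI microdilution. Peptides tested in two-fold serial dilution in cation-adjusted MH-II broth containing 0.002% (final) Polysorbate 80, against roughly 10^6 CFU/mL inocula.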

[3] = tested on: Acinetobacter baumannii 872842; assay type: cell-based; details: 872842
Procedure, shortened: as §1

Escherichia coli 926415 = assay type: cell-based; details: 926415
Procedure, shortened: as §1

[4] = tested on: Klebsiella pneumoniae SSI #3010; assay type: cell-based; details: SSI #3010
Procedure, shortened: as §1

[5] = tested on: Pseudomonas aeruginosa ATCC 27853; assay type: cell-based; details: ATCC 27853
Procedure, shortened: as §1

[6] = tested on: Acinetobacter baumannii DSM 30008; assay type: cell-based; details: DSM 30008
Procedure, shortened: as §1

[7] = tested on: Escherichia coli ATCC 25922; assay type: cell-based; details: ATCC 25922
Procedure, shortened: as §1

[8] = tested on: Klebsiella pneumoniae 968733; assay type: cell-based; details: 968733
Procedure, shortened: as §1

Row | Compound | Mortality and dose (male ICR mice) | Hemolysis at 200 μg/mL [1] | MIC [2] | MIC [3] | MIC (Escherichia coli 926415) | Klebsiella pneumoniae SSI #3010 MIC [4] | Pseudomonas aeruginosa ATCC 27853 MIC [5] | Acinetobacter baumannii DSM 30008 MIC [6] | Escherichia coli ATCC 25922 MIC [7] | MIC [8]
1 | CC(=O)N[C@H](C(=O)N[C@H]1CSSC[C@@H](C(=O)N[C@@H](CO)C(N)=O)NC(=O)[C@H](C(C)C)NC(=O)[C@H](CO)NC(=O)[C@H](Cc2c[nH]c3ccccc23)NC(=O)[C@H](CO)NC(=O)[C@@H](CCN)NC(=O)[C@H](CCC(=O)N[C@@H](CCN)C(=O)N[C@H](C(=O)N[C@@H](CCN)C(=O)N[C@H]2CCNC(=O)[C@H]([C@@H](C)O)NC(=O)[C@H](CCN)NC(=O)[C@H](CCN)NC(=O)[C@H]([C@@H](C)O)NC(=O)[C@@H](CC(C)C)NC(=O)[C@H](CCN)NC2=O)[C@@H](C)O)NC(=O)[C@H](CCN)NC(=O)[C@H](Cc2ccc(O)cc2)NC1=O)C(C)C [Ex. 333] (I: Ac-VCY[Dab]E[dDab]SWSVCS-NH2 / II: [Dab]T[Dab][Dab][Dab][dL]T[Dab][Dab]T; disulfide I:2-I:11; amide I:5-II:N; lactam II:4-II:C) | 0/3 died at 2 × 40 mg/kg | 2% | 0.25 µg/mL (≈ 0.104 µM) | 0.5 µg/mL (≈ 0.208 µM) | 0.5 µg/mL (≈ 0.208 µM) | 0.0625 µg/mL | 0.25 µg/mL | 0.125 µg/mL | 0.0625 µg/mL | 1 µg/mL (≈ 0.417 µM)
2 | CC(=O)N[C@H](C(=O)N[C@H]1CSSC[C@@H](C(=O)N[C@@H](CO)C(N)=O)NC(=O)[C@H](C(C)C)NC(=O)[C@H](CO)NC(=O)[C@H](Cc2c[nH]c3ccccc23)NC(=O)[C@H](CCC(=O)N[C@@H](CCN)C(=O)N[C@H](C(=O)N[C@@H](CN)C(=O)N[C@H]2CCNC(=O)[C@H]([C@@H](C)O)NC(=O)[C@H](CCN)NC(=O)[C@H](CCN)NC(=O)[C@H](CC(C)C)NC(=O)[C@@H](CC(C)C)NC(=O)[C@H](CCN)NC2=O)[C@@H](C)O)NC(=O)[C@@H](CCN)NC(=O)[C@H](Cc2c[nH]cn2)NC(=O)[C@H](CCN)NC(=O)[C@H](Cc2ccc(O)cc2)NC1=O)C(C)C [Ex. 365] (I: Ac-VCY[Dab]H[dDab]EWSVCS-NH2 / II: [Dab]T[Dap][Dab][Dab][dL]L[Dab][Dab]T; disulfide I:2-I:11; amide I:7-II:N; lactam II:4-II:C) | 0/3 died at 2 × 40 mg/kg | <1% | 0.0625 µg/mL (≈ 0.0255 µM) | 0.0625 µg/mL (≈ 0.0255 µM) | 0.125 µg/mL (≈ 0.051 µM) | 0.0625 µg/mL | 0.125 µg/mL | 0.0625 µg/mL | 0.03125 µg/mL | 0.125 µg/mL (≈ 0.051 µM)
3 | CC(=O)N[C@H](C(=O)N[C@H]1CSSC[C@@H](C(=O)N[C@@H](CO)C(N)=O)NC(=O)[C@H](C(C)C)NC(=O)[C@H](CO)NC(=O)[C@H](Cc2c[nH]c3ccccc23)NC(=O)[C@H](CO)NC(=O)[C@@H](CCN)NC(=O)[C@H](CCC(=O)N(C)[C@@H](CCN)C(=O)N[C@H](C(=O)N[C@@H](CN)C(=O)N[C@H]2CCNC(=O)[C@H]([C@@H](C)O)NC(=O)[C@H](CCN)NC(=O)[C@H](CCN)NC(=O)[C@H](CC(C)C)NC(=O)[C@@H](CC(C)C)NC(=O)[C@H](CCN)NC2=O)[C@@H](C)O)NC(=O)[C@H](CCN)NC(=O)[C@H](Cc2ccc(O)cc2)NC1=O)C(C)C [Ex. 311] (I: Ac-VCY[Dab]E[dDab]SWSVCS-NH2 / II: [NMeDab]T[Dap][Dab][Dab][dL]L[Dab][Dab]T; disulfide I:2-I:11; amide I:5-II:N; lactam II:4-II:C) | 0/3 died at 2 × 40 mg/kg | <1% | 0.125 µg/mL (≈ 0.0518 µM) | 0.125 µg/mL (≈ 0.0518 µM) | 0.25 µg/mL (≈ 0.104 µM) | 0.0625 µg/mL | 0.25 µg/mL | 0.0625 µg/mL | 0.0625 µg/mL | 0.125 µg/mL (≈ 0.0518 µM)
4 | CC[C@H](C)[C@@H]1NC(=O)[C@H](CO)NC(=O)[C@H](Cc2c[nH]c3ccccc23)NC(=O)[C@H](CO)NC(=O)[C@@H](CCN)NC(=O)[C@H](CCC(=O)N[C@@H](CCN)C(=O)N[C@H](C(=O)N[C@@H](CN)C(=O)N[C@H]2CCNC(=O)[C@H]([C@@H](C)O)NC(=O)[C@H](CCN)NC(=O)[C@H](CCN)NC(=O)[C@H]([C@@H](C)O)NC(=O)[C@@H](CC(C)C)NC(=O)[C@H](CCN)NC2=O)[C@@H](C)O)NC(=O)[C@H](CCN)NC(=O)[C@H](Cc2ccc(O)cc2)NC(=O)[C@@H](NC(=O)[C@@H](NC(C)=O)C(C)C)CSSC[C@@H](C(=O)N[C@@H](CO)C(=O)N[C@H](C)C(N)=O)NC1=O [Ex. 380] (I: Ac-VCY[Dab]E[dDab]SWSICS[dA]-NH2 / II: [Dab]T[Dap][Dab][Dab][dL]T[Dab][Dab]T; disulfide I:2-I:11; amide I:5-II:N; lactam II:4-II:C) | 0/3 died at 2 × 40 mg/kg | <1% | 0.125 µg/mL (≈ 0.0506 µM) | 0.25 µg/mL (≈ 0.101 µM) | 0.125 µg/mL (≈ 0.0506 µM) | 0.0625 µg/mL | 0.125 µg/mL | 0.0625 µg/mL | 0.03125 µg/mL | 0.5 µg/mL (≈ 0.202 µM)
5 | CC[C@@H]1NC(=O)[C@@H](CC(C)C)NC(=O)[C@H](CCN)NC(=O)[C@@H](NC(=O)[C@H](CCN)NC(=O)[C@@H](NC(=O)[C@H](CCN)NC(=O)CC[C@@H]2NC(=O)[C@H](CCN)NC(=O)[C@H](Cc3ccc(O)cc3)NC(=O)[C@@H](NC(=O)[C@@H](NC(C)=O)C(C)C)CSSC[C@@H](C(=O)N[C@@H](CO)C(N)=O)NC(=O)[C@H](C(C)C)NC(=O)[C@H](CO)NC(=O)[C@H](Cc3c[nH]c4ccccc34)NC(=O)[C@H](CO)NC(=O)[C@@H](CCN)NC2=O)[C@@H](C)O)CCNC(=O)[C@H]([C@@H](C)O)NC(=O)[C@H](CCN)NC(=O)[C@H](CCN)NC1=O [Ex. 332] (I: Ac-VCY[Dab]E[dDab]SWSVCS-NH2 / II: [Dab]T[Dab][Dab][Dab][dL][Abu][Dab][Dab]T; disulfide I:2-I:11; amide I:5-II:N; lactam II:4-II:C) | 0/3 died at 2 × 40 mg/kg | 2% | 0.125 µg/mL (≈ 0.0524 µM) | 0.25 µg/mL (≈ 0.105 µM) | 0.25 µg/mL (≈ 0.105 µM) | 0.0625 µg/mL | 0.25 µg/mL | 0.0625 µg/mL | 0.03125 µg/mL | 0.5 µg/mL (≈ 0.21 µM)
